These results are taken from patent EP1300145A1, “THERAPEUTIC OR […] FOR MOOD DISORDERS OR ANXIETY DISORDERS” (TORAY INDUSTRIES, INC., priority 2000, dated 2002).

The subject of one assay is male SD rats. The assay is described as follows: elevated plus-maze test in rats (antianxiety effect). It is filed as in vivo. To be noted: subcutaneous; for Time spent on open arms: 30 minutes after administration, 3 minute test, Saline,s.c. 19.1 ± 6.3; for antianxiety effect: overall statement in words. From the text: (§1) The isoquinoline derivative represented by formula (I) has a marked effect in the forced swim test, which is the animal model for mood disorder, and in the elevated plus-maze test, which is the animal model for anxiety disorder. Thus, the isoquinoline derivative can be used as a drug for curing or preventing mood disorder or anxiety disorder of mammal and, in particular, human beings. It may also be used in manufacturing of a medicament for curing or preventing mood disorder or anxiety disorder. The evaluation using the above-described animal models can be conducted by a method described in published references [Nature vol. 266, 730 (1977) or Jpn. J. Psychopharmacol vol. 15, 125 (1995)], but the method is not limited to this.
The experiment was conducted on male SD rats. In the elevated plus-maze test, the elevated plus-maze (manufactured by NeuroScience, Inc.) consisting of closed arms and open arms was used. In the experiment, a rat was placed on an open arm 30 minutes after the drug administration (subcutaneous administration), and the number of entries to the open and closed arms and the time spent in the open arms were measured. The test was conducted for 3 minutes. The rat was assumed to have made entries when all four legs have entered the arm. The ratio of the time spent in the open arms and the ratio of the entries to the open arms were calculated according to the following equations: Ratio of the time spent in the open arms (%) = {(time spent in the open arms)/(total time)} × 100 [formula] Ratio of the entries to the open arms (%) = {(number of entries to the open arms)/(total number of entries)} × 100 [formula]
The vertical axis on the left indicates the ratio of the time spent in the open arms (%) and the ratio of the entries to the open arms (%). The vertical axis on the right indicates the total number of entries. The horizontal axis indicates a control group and treatment groups. Open columns indicate the ratio of the time spent in the open arms (%) and hatched columns indicate the ratio of the entries to the open arms (%). Closed circles indicate the total number of entries. All data are indicated by average ±standard error. In a significance test, the difference was assumed to be significant at a significance level of 5% or less by Dunnett's multiple comparison. In the test, the drug is assumed to have an antianxiety effect when there are an increase in time spent on open arms and an increase in ratio of entries to open arms under administration.
The antianxiety effect of Compounds 3, 5, and 6 was assessed as in Example 1. […]

Another assay relates to male ICR mice. As to the kind of experiment: forced swim test in mice (antidepressant effect). It is filed as in vivo. The conditions noted are these: for Immobility time: Saline,s.c. 136.3 ± 11.4; for antidepressant effect: subcutaneous, overall statement in words.
From the text: as §1
In the experiment, male ICR mice were used. In the forced swim test, the tank for forced swim used was a transparent cylindrical tank made of plastic (inner diameter: 10 cm, height: 30 cm), and water at 25°C was contained up to 14 cm in height. A mouse was placed in water, and its swimming time during 2 to 6 minutes after placement was measured. The drug was subcutaneously administered 30 minutes before testing. The vertical axis indicates the swimming time (sec) during the measurement time (4 min). The open column indicates a saline-treated group and the hatched columns indicate Compound 1 treatment groups. All data are indicated by average ±standard error. In a significance test, the difference was assumed to be significant at a significance level of 5% or less by Dunnett's multiple comparison. In the test, the drug is assumed to have an antidepressant effect when there is an increase in swimming time under administration.
The antidepressant effect of Compound 3, 5, and 6 was assessed as in Example 3. […]

Where [1] appears, read: 30 mg/kg, subcutaneous 30 minutes before testing.
[2] abbreviates: Fig. 1, compared with the control group (saline-treated group), Dunnett's multiple comparison.

For `Cc1c2c(nc3ccccc13)C[C@@]1(c3cccc(O)c3)CCN(C)C[C@@H]1C2` (relative stereo) [Compound 3, 2-methyl-4aα-(3-hydroxyphenyl)-11-methyl-1,2,3,4,4a,5,12,12aβ-octahydro-quinolino[2,3-g]isoquinoline], the “Time spent on open arms” value in the assay with male SD rats (30 mg/kg) worked out at 36.6 ± 13.2 s. Also, the antianxiety effect entry in the assay with male SD rats is on record as “significant antianxiety effects”. Also, in the assay on male ICR mice (setting [1]), the “Immobility time” value amounted to 75.4 ± 11.6 s. Further, the antidepressant effect result in the assay with male ICR mice is on record as “significant antidepressant effect”.

For the compound `CN1CC[C@]2(c3cccc(O)c3)Cc3nc4ccccc4c(N)c3C[C@H]2C1` (relative stereo) [Compound 5, 2-methyl-4aα-(3-hydroxyphenyl)-11-amino-1,2,3,4,4a,5,12,12aβ-octahydro-quinolino[2,3-g]isoquinoline], in the assay on male SD rats (10 mg/kg), the “Time spent on open arms” value was 25.4 ± 10.2 s. Also, in the assay on male SD rats, the antianxiety effect entry is recorded as “significant antianxiety effects”. Also, the “Immobility time” value with male ICR mice (10 mg/kg, subcutaneous 30 minutes before testing) was 94.3 ± 13 s. Besides, the antidepressant effect result in the assay with male ICR mice is listed as “significant antidepressant effect”.

Take `Oc1cccc([C@]23CCN(CCc4ccccc4)C[C@@H]2Cc2cc4ccccc4nc2C3)c1` (relative stereo) [Compound 6, 2-phenethyl-4aα-(3-hydroxyphenyl)-1,2,3,4,4a,5,12,12aβ-octahydro-quinolino [2,3-g]isoquinoline]: the “Time spent on open arms” value in the assay on male SD rats (30 mg/kg) stood at 37.9 ± 4.4 s. Further, the antianxiety effect entry in the assay on male SD rats is on record as “significant antianxiety effects”. Moreover, the “Immobility time” value in the assay on male ICR mice (setting [1]) came to 58.7 ± 9.1 s. In addition, in the assay on male ICR mice, the antidepressant effect result was “significant antidepressant effect”.

On to `CN1CC[C@]2(c3cccc(O)c3)Cc3nc4ccccc4cc3C[C@@H]2C1` [Compound 1, (4aS,12aS)-2-methyl-4a-(3-hydroxyphenyl)-1,2,3,4,4a,5,12,12a-octahydroquinolino[2,3-g]isoquinoline], for which, in the assay on male SD rats (setting [2]), the “ratio of the entries to open arms” value is recorded as “dose-dependent significant increase” and the “time spent in open arms” value is listed as “dose-dependent significant increase”. In addition, in the assay on male SD rats, the antianxiety effect result was “confirmed to have an antianxiety effect”. For the same compound, in the assay with male ICR mice (subcutaneous 30 minutes before testing, 2 to 6 minutes after placement, Fig. 2, compared with the control group (saline-treated group)), the swimming time entry is reported as “dose-dependent significant increase”. In the assay on male ICR mice, the antidepressant effect entry is listed as “confirmed to have an antidepressant effect”.
